According to PubChem BioAssay AID1996:
≈ marks a conversion by molar mass, not a printed value.

Conditions: buffer; pH 7.4; 200.0 µM

Row | SMILES | solubility kinetic [µg/mL]
1 | CCOC(=O)c1c(NC(=O)c2cc(C)on2)c2cc([N+](=O)[O-])ccc2n1C | 1.6 (≈ 4.3 µM)
2 | Clc1ccc(CSC(Cn2ccnc2)c2ccc(Cl)cc2Cl)cc1.O=[N+]([O-])O (centres undefined) | 48.7
3 | CCCCN(C)Cc1cc(=O)oc2ccc3ccccc3c12 | 1.8 (≈ 6.09 µM)
4 | CC1CCCCC12NC(=O)N(CC(=O)OCc1ccccc1F)C2=O (centres undefined) | 17.2 (≈ 49.4 µM)
5 | NS(=O)(=O)c1ccc(NC(=O)Nc2ccc(S(N)(=O)=O)cc2)cc1 | 9.7 (≈ 26.2 µM)
6 | COc1ccc(C(=O)NC(C)CCc2ccccc2)c(O)c1 (centres undefined) | 15.2 (≈ 50.8 µM)
7 | CC(=C\c1ccccc1)/C=C1/SC(=S)N(CCC(=O)O)C1=O | 34.7 (≈ 104 µM)
8 | CCCNC(=O)CN1C(=O)NC(CCc2ccccc2)C1=O (centres undefined) | > 45.5
9 | CCC(C)NCCCOc1ccc(C)cc1OC (centres undefined) | 35.1 (≈ 140 µM)
10 | Cc1nc2ccccc2c(=O)n1NC(=O)c1c(F)cccc1F | > 47.3
11 | Cc1nc(Nc2cccc(F)c2)c2oc3ccccc3c2n1 | < 0.2
12 | CCOc1ccc(NC(=O)c2ccc(CC)s2)c([N+](=O)[O-])c1 | < 0.3
13 | COc1ccc(NC(=O)CCn2cc(C)c3ccccc32)cc1 | 4.4 (≈ 14.3 µM)
14 | O=C(Nc1cccc2ccccc12)NC(Cc1ccccc1)C(=O)O (centres undefined) | > 50.2
15 | Cc1ccc(S(=O)(=O)N2CCN(C(=O)N(C)C)CC2)cc1 | > 46.7
16 | Fc1cc(F)nc(NCc2ccccc2)n1 | 12.2 (≈ 55.2 µM)
17 | O=C(c1c(F)cccc1F)N1CCN(CCOc2ccccc2)CC1 | > 52
18 | COc1cc2nc(Cl)nc(NCCO)c2cc1OC | 24.7 (≈ 87.1 µM)
19 | CCOc1ccc(NC(=O)C(C)Sc2nccn2C)cc1 (centres undefined) | > 45.8
20 | CC(=O)OCCNc1cc(SC(C)C)c2nonc2c1[N+](=O)[O-] | 4.1 (≈ 12 µM)
21 | O=C(COC(=O)/C=C/c1ccc(OC(F)F)cc1)NC(=O)NC1CCCCC1 | 4.5 (≈ 11.4 µM)
22 | O=C1CNC(=S)N1CCc1ccccc1Cl | > 38.2
23 | Fc1cccc(NC(=S)Nc2cccnc2)c1 | > 37.1
24 | CCOC(=O)c1sc(-c2ccc(C(F)(F)F)cc2)nc1O | > 47.6

Row | SMILES | solubility kinetic [µg/mL]
25 | COc1ccc(CN(C)CC(=O)NC(C)c2ccccc2)cc1OC (centres undefined) | > 51.4
26 | CCOc1ccc(NC(=S)N2c3ccccc3CC2C)cc1 (centres undefined) | 4.4 (≈ 14.1 µM)
27 | Cc1onc(-c2c(Cl)cccc2Cl)c1C(O)c1ccccc1 (centres undefined) | > 50.1
28 | Cc1ccc(C(=O)NC(=S)Nc2ccccc2C)cc1 | 1.4 (≈ 4.92 µM)
29 | COc1ccccc1-n1cc(-c2ccc([N+](=O)[O-])cc2)[nH]c1=S | 0.3 (≈ 0.916 µM)
30 | C=CCN1C(=O)c2ccccc2NC1c1cc(Br)cs1 (centres undefined) | 41.1 (≈ 118 µM)
31 | O=C(COC(=O)c1cc(F)cc(F)c1)Nc1cccnc1Cl | 10.9 (≈ 33.4 µM)
32 | O=C(c1ccccc1)n1c(=O)c(F)cn(COCCBr)c1=O | > 55.7
33 | COc1cccc2[nH]c3ccccc3c(=O)c12 | > 33.8
34 | NC(=O)c1ccccc1NC(=O)COC(=O)CSCc1cccc(Cl)c1 | 10.8 (≈ 27.5 µM)
35 | COCCCNc1nc(N)c([N+](=O)[O-])c(N2CCCCCC2)n1 | 47.4 (≈ 146 µM)
36 | CNC(=O)CSc1nc2ccccc2c(=O)n1CCc1ccccc1 | < 0.3
37 | COc1ccc(S(=O)(=O)Nc2cccnc2)c(Cl)c1Cl | 21.5 (≈ 64.5 µM)
38 | COc1cccc(NC(=O)C(=O)NCCc2ccc(F)cc2)c1 | < 0.3
39 | O=C(NN=C1CCCC1)C1COc2ccccc2O1 (centres undefined) | > 39
40 | CCC(CC)NC(=O)COc1ccc(OC)cc1C=O | 30.7 (≈ 110 µM)
41 | CCOP(=O)(c1ccc(N(C)C)cc1)C(O)c1ccc(C)cc1 (centres undefined) | 46 (≈ 138 µM)
42 | O=S(=O)(CCN1CCN(c2ccccn2)CC1)c1ccc(F)cc1 | 49 (≈ 140 µM)
43 | COC(=O)c1c(NC(=O)c2ccc(C)cc2)csc1C | < 0.6
44 | Cc1ccc(C(=O)NCCNC(=O)COc2ccccc2Cl)cn1 | > 52.2
45 | CC1CC(NC(=O)/C(C#N)=C/c2ccc[nH]2)CC(C)(C)C1 (centres undefined) | < 0.2
46 | O=C(COC(=O)c1ccc[nH]c1=O)Nc1ccc2c(c1)OC(F)(F)O2 | > 52.8
47 | Nc1ccccc1S(=O)(=O)C(F)F | 28.4 (≈ 137 µM)
48 | N#CCSc1nc2ccccc2c(=O)n1CCCC(=O)NCC1CCCO1 (centres undefined) | 47.7 (≈ 123 µM)

Row | SMILES | solubility kinetic [µg/mL]
49 | CC(C#N)Sc1ncnc2sc(-c3ccccc3)cc12 (centres undefined) | 0.8 (≈ 2.69 µM)
50 | NC(=O)C[C@H](NC(=O)c1ccc(Cl)cc1)C(=O)OCc1ccccc1 | > 54.1
51 | Cc1cc(C(=O)NCc2ccco2)c2ccccc2n1 | > 39.9
52 | CC(C(=O)N1CCCC1)N(c1ccccc1)S(C)(=O)=O (centres undefined) | > 44.5
53 | Cc1ccc(C(C)(c2ccc(N)cc2)c2ccc(N)cc2)cc1 | 10.3 (≈ 34.1 µM)
54 | Cc1ccc2[nH]cc(CCNS(=O)(=O)c3ccc(F)cc3)c2c1 | 23 (≈ 69.2 µM)
55 | COc1ccc(S(=O)(=O)N2CCN(c3ccccn3)CC2)c(OC)c1 | 52.1 (≈ 143 µM)
56 | CCC1(CC)NC(=O)N(Cc2nc3ccccc3s2)C1=O | > 45.5
57 | C#CCSc1nc2sc3c(c2c(=O)n1C)CCC3 | < 0.3
58 | OCCNC(=S)c1ccccc1 | 25.7 (≈ 142 µM)
59 | Cc1cc(C(=O)N(C)CC(=O)Nc2ccc(F)c(F)c2F)no1 | > 49.1
60 | O=C(CN1CCN(Cc2ccccc2F)C1=O)NC1CCCC1 | > 47.9
61 | CCCCCOC(=O)NC1CCS(=O)(=O)C1 (centres undefined) | > 37.4
62 | CCCOc1ccc(C(=O)NCCC(=O)NCCCC(=O)O)cc1 | > 50.5
63 | CC(NC(=O)CCNC(=O)c1ccccc1Cl)c1ccc(-n2ccnc2)cc1 (centres undefined) | > 59.5
64 | CC1CCCC(NC(=S)NC(=O)c2ccco2)C1C (centres undefined) | 5.4 (≈ 19.3 µM)
65 | CC(=NCC1CCCO1)c1c(O)n(-c2ccccc2C)c(=O)[nH]c1=O (centres undefined) | > 51.5
66 | O=C(CC1CCC1)Nc1cccc2c([N+](=O)[O-])cccc12 | 5.8 (≈ 20.4 µM)
67 | Cc1ccc(S(=O)(=O)CC(=O)N2CCN(c3ccc([N+](=O)[O-])cc3)CC2)cc1 | 24.7 (≈ 61.2 µM)
68 | COc1ccc(S(=O)(=O)N2CCOCC2)c2ccccc12 | 40.6 (≈ 132 µM)
69 | C[C@H](NC(=O)c1ccco1)C(=O)Nc1cc(S(=O)(=O)N2CCCC2)ccc1OCC(F)(F)F | > 73.4
70 | Cc1ccccc1Nc1nc(N)nc(CSc2n[nH]c(N)n2)n1 | > 49.4
71 | CC(=O)c1sc(NC(=O)c2ccc(Br)o2)nc1C | 12.8 (≈ 38.9 µM)
72 | CCc1ccc(CCC(=O)Nc2ccc(C(=O)O)cc2)o1 | > 43.1

Row | SMILES | solubility kinetic [µg/mL]
73 | CC1=NN(c2nc3ccccc3[nH]2)C(=O)/C1=C/N(C)C | > 40.4
74 | CCOC(=O)CN1CCS(=O)(=O)CC1 | > 33.2
75 | Cc1cccc(NS(=O)(=O)c2ccc(C)c(C(=O)NCc3cccnc3)c2)c1 | > 59.3
76 | CCC1CCCCN1C(=O)COC(=O)c1cccs1 (centres undefined) | > 42.2
77 | NS(=O)(=O)c1ccc(OC(=O)CNC(=O)OCc2ccccc2)cc1 | 34.3 (≈ 94.1 µM)
78 | Cc1ccccc1N1CCN(CC(=O)NCc2ccc(Cl)cc2)CC1 | 19.6 (≈ 54.8 µM)
79 | COc1cccc(NC(=O)CN2C(=O)NC(C)(CC(C)C)C2=O)c1 (centres undefined) | > 50
80 | Cc1cccn2c(=O)c3cc(C(=O)N4CCCCC4C)sc3nc12 (centres undefined) | 13.1 (≈ 38.4 µM)
81 | CC(=O)Nc1ccc(SCc2csc(C)n2)cc1 | 35.4 (≈ 127 µM)
82 | Cc1cccnc1NC(=O)C(c1ccccc1)c1ccccc1 | > 45.4
83 | Cc1c(C)[n+](=O)c2c(n1[O-])C(Br)CCC2Br (centres undefined) | > 52.8
84 | COc1ccc2c(c1)nc(SCC(O)c1ccccc1)n2C (centres undefined) | 41.3 (≈ 131 µM)
85 | O=C(NC12CC3CC(CC(C3)C1)C2)c1cccc(OC(F)F)c1 | 16.7 (≈ 52 µM)
86 | CCOC(=S)SCC(=O)Nc1ncc(C)s1 | 40.1 (≈ 145 µM)
87 | Cn1ccnc1C1CCCCN1Cc1nc(Cc2ccccc2F)no1 (centres undefined) | 49.9 (≈ 140 µM)
88 | CC1(C)CC(=O)C=C(Nc2ccc([N+](=O)[O-])cc2)C1 | 22.8 (≈ 87.6 µM)
89 | CCOC(=O)C1=C(C)OC(N)=C(C#N)C1c1cccc(C)c1 (centres undefined) | 43.7 (≈ 146 µM)
90 | O=C(Nc1ccc(CN2CCS(=O)(=O)CC2)cc1)c1ccc(Cl)cc1 | 4.6 (≈ 12.1 µM)
91 | CCC(=O)OC1(c2ccccc2)C(C)CN(C)CC1C.Cl (centres undefined) | > 46.8
92 | O=C(CCc1ccccc1)OCC(=O)c1cccc([N+](=O)[O-])c1 | > 47
93 | CC1(C)CC(=O)C=C(Nc2ccccc2)C1 | > 32.3
94 | N/C(=N\OC(=O)c1ccc([N+](=O)[O-])cc1)c1ccc(Br)cc1 | < 0.3
95 | COc1ccc(C)cc1NC(=O)C1CC(=O)N(CCc2ccccc2)C1 (centres undefined) | > 52.9
96 | CC(C)(C)c1ccc(C(=O)O/N=C(\N)c2ccccc2)cc1 | 1.1 (≈ 3.71 µM)

Row | SMILES | solubility kinetic [µg/mL]
97 | Cc1ccc(N2C(=O)[C@@H]3C(c4cccnc4)=NO[C@@H]3C2=O)c(C)c1 | > 48.2
98 | CCCCN(C)CCNC(=O)c1cn(C)c(=O)c2c1c1ccccc1n2C | > 55.3
99 | Cc1ccc(NC(=O)c2ccc3nccnc3c2)c(C)c1 | > 41.6
100 | COc1ccccc1NS(=O)(=O)c1ccc(C(=O)N2CCN(c3ccccn3)CC2)cc1 | 53.9 (≈ 119 µM)
101 | O=C1OC(C(=O)NCc2ccccc2)Cc2ccccc21 (centres undefined) | 39 (≈ 139 µM)
102 | C=CCSc1nc2c(c(=O)[nH]1)C(c1ccccc1)C(C#N)=C(N)O2 (centres undefined) | 48.7 (≈ 144 µM)
103 | O=C(CCNC(=O)c1ccc(Cl)cc1)Nc1nc2ccccc2[nH]1 | 2.3 (≈ 6.71 µM)
104 | CC1CCCCC1NC(=S)NC(=O)c1ccccc1Cl (centres undefined) | 1.6 (≈ 5.15 µM)
105 | Cc1ccc(Cl)cc1NC(=O)C1C2CCC(O2)C1C(=O)O (centres undefined) | > 46.5
106 | CC1CC(CCN)(c2ccccc2)C(C)CN1C.Cl (centres undefined) | > 47.9
107 | CCSc1nc2ccccc2n1CC(=O)O | > 35.4
108 | CC(Sc1ccccc1)C(=O)NCCc1ccccc1 (centres undefined) | > 42.8
109 | COc1ccc(C(=O)c2sc(Nc3ccccc3)nc2N)cc1 | 2.2 (≈ 6.76 µM)
110 | CC1C/C(=N\NC(=O)c2cccnc2)CC(C)(C)C1 (centres undefined) | > 38.9
111 | O=C(N/N=C/c1ccncc1)C12CC3CC(CC(C3)C1)C2 | > 42.5
112 | Cl.Oc1ccc(CCNc2c3ccccc3nc3ccccc23)cc1O | 44.7
113 | COc1ccccc1OCCn1c(C)c(C=O)c2ccccc21 | 1 (≈ 3.23 µM)
114 | O=C(O)C1CCCCC1C(=O)NCc1ccccn1 (centres undefined) | > 39.3
115 | CCOc1c(Cl)cc(CNCc2ccccn2)cc1OC.Cl | 45.2
116 | N=c1oc2ccccc2cc1C(=O)NC1CCCCCC1 | 15.9 (≈ 55.9 µM)
117 | CCOC(=O)C(Nc1ccc2ccccc2c1)C(=O)OCC | > 45.2
118 | CCCN(CC(=O)Nc1ccccc1C)C(=O)CCl | > 42.4
119 | CC1=C/C(=N\OS(=O)(=O)c2ccccc2)C(C(C)C)=CC1=O | > 47.9
